Data published in ChEMBL document CHEMBL1129186, “Synthesis of new non-nucleoside inhibitors of HIV-1” (Bioorg Med Chem Lett, 1996).

Tests used:
CEM-SS [1] = assay: Compound was evaluated for antiviral activity against CEM SS cells infected with HIV-1(LAI strain).; type: functional, cell-based; settings: Homo sapiens
CEM-SS [2] = assay: Compound was evaluated for cytotoxicity against CEM SS cells infected with HIV-1(LAI strain).; type: functional; settings: Homo sapiens

| SMILES | IC50 (CEM-SS [1]) [µM] | CC50 (CEM-SS [2]) [µM] |
| --- | --- | --- |
| CC(=O)OCCCc1cc(Sc2cc(C)cc(C)c2)c([N+](=O)[O-])c(O)n1 | 1 | > 1 |
| Cc1cc(C)cc(Sc2cc(CCCO)nc(O)c2[N+](=O)[O-])c1 | 8 | > 1 |
| Cc1cn([C@H]2C[C@H](N=[N+]=[N-])[C@@H](CO)O2)c(=O)[nH]c1=O [ZIDOVUDINE] | 3 | > 10 |
| CCc1c(C)nc(Cl)c([N+](=O)[O-])c1Sc1cc(C)cc(C)c1 | 8 | > 1 |
| CCc1c(C)nc(Cl)c([N+](=O)[O-])c1[S+]([O-])c1cc(C)cc(C)c1 (configuration not stated) | 3 | 8 |
| CCc1c(C)nc(O)c([N+](=O)[O-])c1Sc1cc(C)cc(C)c1 | 6 | > 10 |
